Data on 13 compounds can be found in ChEMBL document CHEMBL1124906, “5'-O-phosphonomethyl-2',3'-dideoxynucleosides: synthesis and anti-HIV activity” (J Med Chem, 1990).

Each structure is given as a SMILES string.

Test [1] relates to MT4. Briefly: Effective concentration achieving 50% protection of MT-4 cells against the cytopathic effect of HIV-1. It is filed as functional, cell-based, Homo sapiens. A general note: Cytopathic effects are the visible damage that an infection or toxin causes in cultured cells.
A short description of test [2]: Selectivity index is the ratio of CC50 to EC50. It is filed as functional.
Test [3] deals with MT4. Put plainly: Cytotoxic concentration required to reduce the viability of normal uninfected MT-4 cells by 50%. Type of test: functional, Homo sapiens.
For test [4], the target named is Human immunodeficiency virus type 1 reverse transcriptase (Human immunodeficiency virus 1, UniProt Q72547). Put plainly: Compound was evaluated for the 50% inhibitory concentration on human immunodeficiency virus associated reverse transcriptase.

On to `O=c1ccn([C@H]2CC[C@@H](COCP(=O)(O)O)O2)c(=O)[nH]1`, for which the concentration giving a half-maximal response (EC50) – broadly, the midpoint of the concentration-response curve – in the test on MT4 [1] (Homo sapiens, MT4) was determined as 90 µM. Moreover, in test [2], the SI was above 5. Further, the CC50 (commonly the concentration that lowers cell viability or growth by half) with MT4 [3] (Homo sapiens, MT4) was above 500 µM.

`Cc1cn([C@H]2C[C@H](F)[C@@H](COCP(=O)(O)O)O2)c(=O)[nH]c1=O`: the EC50 with MT4 [1] (Homo sapiens, MT4) came to 0.9 µM. Also, in test [2], the SI amounted to 19. For the same compound, the cytotoxic concentration (CC50) with MT4 [3] (Homo sapiens, MT4) amounted to 17.3 µM.

`Nc1ccn([C@H]2CC[C@@H](COCP(=O)(O)O)O2)c(=O)n1` showed a concentration for a half-maximal effect (EC50) with MT4 [1] (Homo sapiens, MT4) above 500 µM. In addition, the SI in test [2] was above 1. Besides, the 50% cytotoxic concentration (CC50) in the test with MT4 [3] (Homo sapiens, MT4) is above 500 µM.

Take `Cc1cn([C@H]2C[C@H](N=[N+]=[N-])[C@@H](COCP(=O)(O)O)O2)c(=O)[nH]c1=O`: in the test with MT4 [1] (Homo sapiens, MT4), the 50% effective concentration (EC50) worked out at 1.28 µM. For the same compound, in test [2], the SI is 125. Besides, in the test with MT4 [3] (Homo sapiens, MT4), it took 161 µM to reach half-maximal cytotoxicity (CC50).

As for `Cc1cn([C@H]2C[C@H](F)[C@@H](COCP(=O)(O)OP(=O)(O)OP(=O)(O)O)O2)c(=O)[nH]c1=O` (stereo in doubt; 30), the EC50 in the test with MT4 [1] (mt4) is 100 µM. For the same compound, in test [2], the SI was above 5. The compound further had a CC50 in the test with MT4 [3] above 500 µM.

On to `Cc1cn([C@H]2CC[C@@H](COCP(=O)(O)O)O2)c(=O)[nH]c1=O`, for which it took 500 µM to reach a half-maximal effect in the test with MT4 [1] (Homo sapiens, MT4) (EC50). For the same compound, in test [2], the SI is above 1. In the test with MT4 [3] (Homo sapiens, MT4), this compound yielded a CC50 above 500 µM.

The compound `Cc1cn([C@H]2C[C@H](N=[N+]=[N-])[C@@H](CO)O2)c(=O)[nH]c1=O` [ZIDOVUDINE] had an EC50 in the test with MT4 [1] (Homo sapiens, MT4) of 0.003 µM. For the same compound, the SI in test [2] was determined as 1600. Moreover, in the test with MT4 [3] (Homo sapiens, MT4), the CC50 came to 4.8 µM.

On to `CC1CN([C@H]2C[C@H](N=[N+]=[N-])[C@@H](COCP(=O)(O)OP(=O)(O)OP(=O)(O)O)O2)C(=O)NC1=O` (some centres undefined), for which, in test [4], half-maximal inhibition (IC50) was put at 322 µM.

In the case of `Cc1cn([C@H]2C[C@H](N=[N+]=[N-])[C@@H](COCP(=O)(O)OP(=O)(O)OP(=O)(O)O)O2)c(=O)[nH]c1=O`, the response with MT4 [1] (Homo sapiens, MT4) was half-maximal at 1.15 µM (EC50). The same compound came in with a CC50 in the test on MT4 [3] (Homo sapiens, MT4) of 0.023 µM.

Consider `CCOP(=O)(O)COC[C@@H]1CC[C@H](N2CCC(=N)NC2=O)O1`, for which, in the test on MT4 [1] (Homo sapiens, MT4), the EC50 was above 500 µM. The compound further had a CC50 with MT4 [3] (Homo sapiens, MT4) above 500 µM.

For `Cc1cn([C@H]2C[C@H](N)[C@@H](COCP(=O)(O)O)O2)c(=O)[nH]c1=O`, the EC50 in the test on MT4 [1] (Homo sapiens, MT4) is above 500 µM. In test [2], the SI is above 1. The compound also registered a CC50 in the test with MT4 [3] (Homo sapiens, MT4) above 500 µM.

`CO[C@H]1C[C@H](n2cc(C)c(=O)[nH]c2=O)O[C@@H]1COCP(=O)(O)O` yielded a concentration for a half-maximal effect (EC50) with MT4 [1] (Homo sapiens, MT4) of 500 µM. In addition, in test [2], the SI was above 1. The compound further came in with a CC50 with MT4 [3] (Homo sapiens, MT4) above 500 µM.

Turning to `Cc1cn([C@H]2C[C@H](F)[C@@H](CO)O2)c(=O)[nH]c1=O` [ALOVUDINE], in the test with MT4 [1] (Homo sapiens, MT4), the 50% effective concentration (EC50) was found to be 0.001 µM. For the same compound, the SI in test [2] amounted to 197.
